# Test results published in publication PMC10587159, “Biosynthesis and engineering of the nonribosomal peptides with a C-terminal putrescine” (Nature Communications, 2023).
# Entries after “also recorded” stand apart in the source; their conditions may differ. Non-standard residues stand in square brackets, D forms with d. Residues, ends and D or L forms follow the SMILES beside them. *: point of attachment. Lauroyl = CCCCCCCCCCCC(=O)*; NH(CH2)4NH2 = NCCCCN*
# Experiments:
# [1] = system: human acute lymphoblastic leukemia cells K562; experiment: cells; type: cell-based; conditions: 24 h
# Summary of the method: (§1)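 An MTT-based assay, run as in prior work, gives compound cytotoxicity here. The tested lines undergo routine authentication through morphology and gene/protein expression checks.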
# [2] = system: human breast adenocarcinoma cells MCF7; experiment: cells; type: cell-based; conditions: 24 h
# Summary of the method: as §1
# [3] = system: human breast adenocarcinoma cells MDA-MB-231; experiment: cells; type: cell-based; conditions: 24 h
# Summary of the method: (§2)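 Cytotoxicity in Kasumi, HepG-2, SGC-7901 and normal lung epithelial 2B cells, among other human tumour lines, was measured by MTT assay.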
# [4] = system: human colon cancer cell HCT-116; experiment: cells; type: cell-based; conditions: 24 h
# Summary of the method: as §2
# [5] = system: human gastric cancer cell SGC-7901; experiment: cells; type: cell-based; conditions: 24 h
# Summary of the method: (§3)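 Compound cytotoxicity is assessed with the MTT method in human cancer cells and normal 2B lung epithelial cells.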
# [6] = system: human hepatoma cell HepG-2; experiment: cells; type: cell-based; conditions: 24 h
# Summary of the method: as §1
# [7] = system: human lung epithelial normal cell 2B; experiment: cells; type: cell-based; conditions: 24 h
# Summary of the method: as §1
# tumor lines = experiment: MTT cytotoxicity assay, statements on the whole panel; type: cell-based, human; conditions: MTT assay, panel of tumor cell lines
# Summary of the method: as §3
# [8] = system: S. brevitalea DSM 7029 wild type; experiment: Growth curve of DSM 7029 wild type with compounds (Bioscreen C); type: cell-based, Schlegelella brevitalea DSM 7029; conditions: CYMG medium
# Method: The growth curve was tested by Bioscreen C (Labsystems, Finland) as follow. Overnight culture was inoculated into 400 μL fresh CYMG medium in the ratio of 1:100 (the concentration of compounds was 0.1 μg/μL) and shook in normal speed. The OD600 value was gained in every hour for 42 h in total. Biofilm formation was measured at 18 h and 36 h respectively, as reported previously. In brief, the free-floating cells were removed, and the microtitre plate was washed with PBS (pH 7.4) after incubation for 18 h and 36 h. The biofilm was stained by adding 200 µL of crystal violet (0.1%) solution. Crystal violet solution was removed after 15 min and 200 µL of ethanol (95%) was added. The absorbance at OD600 was read using a microplate reader (Infinite M200, Tecan, Männedorf, Switzerland). Meanwhile, free-floating cells were used to test the secretion of pigment. The bacteria were removed and the supernatant was measured at OD600.
# HepG2 cells = experiment: Extracellular and intracellular compound in HepG2 cells (LC-MS); type: in vitro ADME, human; conditions: 3 h
# Method: Comparing the concentration of compounds (7, 10, 10a) in extracellular and intracellular after the HepG2 cell line dealt with compounds. HepG2 cells were plated in six-well plates at a density of 1.5 × 10^5 cells/well and grew overnight. After cell treated with compounds (5 μg/mL) for 3 h, the compounds were extracted with MeOH for cells culture medium and cells separately as followed the reported method. The compounds were quantified by LC‒MS (5%‒95% ACN in 15 min). The cell numbers of HepG2 with the compounds treatments was determined. […]
# To determine whether the difference in bioactivity of products (with or without Put moiety) is due to variations in cellular uptake, we treated hepatoma cell line HepG2 with compounds 7 (C12 acyl), 10 (C14 acyl), and 10a (C14 acyl and without Put) (Supplementary Fig. 33c). The cells were treated for 3 h, and then culture medium and cells were extracted separately. LC-MS was used to detect and quantify the compounds.
# At lower concentrations (5000 ng/mL, and 10,000 ng in total for each group), and […]
# may be contributing to the differences in antitumor activity (Supplementary Fig. 33b).
# This could be due to differences in the speed of cellu lar uptake or differences in drug metabolism rate, requiring further experimental investigation.
smiles,measurement,setting,value
"CCCCCCCCCCCC(=O)N[C@H](CCSC)C(=O)N[C@H](CC(N)=O)C(=O)N1CCC[C@H]1C(=O)N[C@H](C(=O)N[C@H](Cc1ccccc1)C(=O)N1CCC[C@H]1C(=O)N[C@@H](Cc1c[nH]c2ccccc12)C(=O)N[C@@H](C(=O)N[C@@H](C)C(=O)N[C@H](C)C(=O)N[C@@H](CO)C(=O)N[C@@H](C)C(=O)NCCCCN)C(C)C)C(C)C [Compound 7, Glidonin G] (Lauroyl-[dM][dN]PV[dF]PW[dV]A[dA]SA-{NH(CH2)4NH2})",IC50,[1],13.5 ± 4.44 µM
same,IC50,[2],> 20 µM
same,IC50,[3],4.76 ± 0.79 µM
same,IC50,[4],> 20 µM
same,IC50,[5],> 20 µM
same,IC50,[6],8.3 ± 0.57 µM
same,IC50,[7],11.7 ± 1.5 µM
same,cytotoxic / antitumor activity in words,tumor lines,broad-spectrum cytotoxicity
same,effect on growth of DSM 7029 wild type in words,"[8]; compound 0.1 μg/μL, OD600 every hour for 42 h, Bioscreen C",weak inhibition of growth; also recorded: obviously inhibit the growth
same,OD600 of wild type DSM 7029 with addition of compounds,[8]; control OD600 0.6,0.4
same,total quantities (intracellular plus extracellular) in words,"HepG2 cells; HepG2, 5000 ng/mL, compared to 10a",lower total quantities
same,"Intracellular compound, Average","HepG2 cells; HepG2, six-well plates, 5 μg/mL (10,000 ng in total), cells extracted with MeOH, mean of n = 3",13.4894 ng
same,"Extracellular compound, Average","HepG2 cells; HepG2, six-well plates, 5 μg/mL (10,000 ng in total), culture medium extracted with MeOH, mean of n = 3",2764.81 ng
